# Measurements reported in ChEMBL document CHEMBL5608186, “Design, synthesis and structure-activity relationships of novel non-ketolides: 9-Oxime clarithromycin featured with seven-to thirteen-atom-length diamine linkers at 3-OH” (Eur J Med Chem, 2024).
# Key:
# Type in all cases: functional
# Streptococcus pyogenes [1] = assay: Selectivity ratio of MBC for Streptococcus pyogenes 01-968 harboring i-ermB gene to MIC for Streptococcus pyogenes 01-968 harboring i-ermB gene
# Haemophilus influenzae [2] = assay: Selectivity ratio of MBC for Haemophilus influenzae ATCC 49247 to MIC for Haemophilus influenzae ATCC 49247
# Streptococcus pneumoniae [3] = assay: Bactericidal activity against Streptococcus pneumoniae 07P390 harboring c-erm gene incubated for 16 to 20 hrs by CLSI based broth microdilution method; conditions: time 16-20 hrs
# Streptococcus pneumoniae [4] = assay: Antibacterial activity against Streptococcus pneumoniae 07P390 harboring c-erm gene incubated for 16 to 20 hrs by CLSI based broth microdilution method; conditions: time 16-20 hrs
# Streptococcus pneumoniae [5] = assay: Selectivity ratio of MBC for Streptococcus pneumoniae PU 09 harboring mef gene to MIC for Streptococcus pneumoniae PU 09 harboring mef gene
# Streptococcus pneumoniae [6] = assay: Selectivity ratio of MBC for Streptococcus pneumoniae ATCC 49619 to MIC for Streptococcus pneumoniae ATCC 49619
# Staphylococcus aureus [7] = assay: Bactericidal activity against methicillin-resistant Staphylococcus aureus PU 20 harboring c-ermA gene incubated for 16 to 20 hrs by CLSI based broth microdilution method; conditions: time 16-20 hrs
# Staphylococcus aureus [8] = assay: Antibacterial activity against methicillin-resistant Staphylococcus aureus PU 20 harboring c-ermA gene incubated for 16 to 20 hrs by CLSI based broth microdilution method; conditions: time 16-20 hrs
# Staphylococcus aureus [9] = assay: Bactericidal activity against methicillin-resistant Staphylococcus aureus PU 32 harboring i-ermA gene incubated for 16 to 20 hrs by CLSI based broth microdilution method; conditions: time 16-20 hrs
# Staphylococcus aureus [10] = assay: Antibacterial activity against methicillin-resistant Staphylococcus aureus PU 32 harboring i-ermA gene incubated for 16 to 20 hrs by CLSI based broth microdilution method; conditions: time 16-20 hrs
# Streptococcus pyogenes [11] = assay: Bactericidal activity against Streptococcus pyogenes 01-968 harboring i-ermB gene incubated for 16 to 20 hrs by CLSI based broth microdilution method; conditions: time 16-20 hrs
# Streptococcus pyogenes [12] = assay: Antibacterial activity against Streptococcus pyogenes 01-968 harboring i-ermB gene incubated for 16 to 20 hrs by CLSI based broth microdilution method; conditions: time 16-20 hrs
# Haemophilus influenzae [13] = assay: Bactericidal activity against Haemophilus influenzae ATCC 49247 incubated for 16 to 20 hrs by CLSI based broth microdilution method; conditions: time 16-20 hrs
# Haemophilus influenzae [14] = assay: Antibacterial activity against Haemophilus influenzae ATCC 49247 incubated for 16 to 20 hrs by CLSI based broth microdilution method; conditions: time 16-20 hrs
# Streptococcus pneumoniae [15] = assay: Selectivity ratio of MBC for Streptococcus pneumoniae 07P390 harboring c-erm gene to MIC for Streptococcus pneumoniae 07P390 harboring c-erm gene
# Streptococcus pneumoniae [16] = assay: Bactericidal activity against Streptococcus pneumoniae PU 09 harboring mef gene incubated for 16 to 20 hrs by CLSI based broth microdilution method; conditions: time 16-20 hrs
# Streptococcus pneumoniae [17] = assay: Antibacterial activity against Streptococcus pneumoniae PU 09 harboring mef gene incubated for 16 to 20 hrs by CLSI based broth microdilution method; conditions: time 16-20 hrs
# Streptococcus pneumoniae [18] = assay: Bactericidal activity against Streptococcus pneumoniae ATCC 49619 incubated for 16 to 20 hrs by CLSI based broth microdilution method; conditions: time 16-20 hrs
# Streptococcus pneumoniae [19] = assay: Antibacterial activity against Streptococcus pneumoniae ATCC 49619 incubated for 16 to 20 hrs by CLSI based broth microdilution method; conditions: time 16-20 hrs
# Staphylococcus aureus [20] = assay: Selectivity ratio of MBC for methicillin-resistant Staphylococcus aureus PU 32 harboring i-ermA gene to MIC for methicillin-resistant Staphylococcus aureus PU 32 harboring i-ermA gene
Structure (SMILES),Selectivity ratio (Streptococcus pyogenes [1]),Selectivity ratio (Haemophilus influenzae [2]),MBC (Streptococcus pneumoniae [3]) [µg/mL],MIC (Streptococcus pneumoniae [4]) [µg/mL],Selectivity ratio (Streptococcus pneumoniae [5]),Selectivity ratio (Streptococcus pneumoniae [6]),MBC (Staphylococcus aureus [7]) [µg/mL],MIC (Staphylococcus aureus [8]) [µg/mL],MBC (Staphylococcus aureus [9]) [µg/mL],MIC (Staphylococcus aureus [10]) [µg/mL],MBC (Streptococcus pyogenes [11]) [µg/mL],MIC (Streptococcus pyogenes [12]) [µg/mL],MBC (Haemophilus influenzae [13]) [µg/mL],MIC (Haemophilus influenzae [14]) [µg/mL],Selectivity ratio (Streptococcus pneumoniae [15]),MBC (Streptococcus pneumoniae [16]) [µg/mL],MIC (Streptococcus pneumoniae [17]) [µg/mL],MBC (Streptococcus pneumoniae [18]) [µg/mL],MIC (Streptococcus pneumoniae [19]) [µg/mL],Selectivity ratio (Staphylococcus aureus [20])
CC[C@H]1OC(=O)[C@H](C)[C@@H](OC(=O)CCNCCCc2ccc3c(c2)c(=O)c(C(=O)O)cn3C2CC2)[C@H](C)[C@@H](O[C@@H]2O[C@H](C)C[C@H](N(C)C)[C@H]2O)[C@](C)(OC)C[C@@H](C)/C(=N\OC)[C@H](C)[C@H]2OC(=O)O[C@@]21C,1,2,> 32,16,1,2,–,–,–,–,–,–,–,–,–,–,–,–,–,–
CC[C@H]1OC(=O)[C@H](C)[C@@H](OC(=O)CCNCCCCNc2cc3c(cc2F)c(=O)c(C(=O)O)cn3C2CC2)[C@H](C)[C@@H](O[C@@H]2O[C@H](C)C[C@H](N(C)C)[C@H]2O)[C@](C)(OC)C[C@@H](C)/C(=N\OCC#Cc2ccc3c(c2)c(=O)c(C(N)=O)cn3CC)[C@H](C)[C@H]2OC(=O)O[C@@]21C,>8,1,8,2,1,1,> 256,> 256,> 256,128,> 8,1,8,8,4,0.25,0.25,0.12,0.12,–
CC[C@H]1OC(=O)[C@H](C)[C@@H](OC(=O)CCN2CCN(c3cc4c(cc3F)c(=O)c(C(=O)O)cn4C3CC3)CC2)[C@H](C)[C@@H](O[C@@H]2O[C@H](C)C[C@H](N(C)C)[C@H]2O)[C@](C)(OC)C[C@@H](C)/C(=N\OCC#Cc2cncc3ccccc23)[C@H](C)[C@H]2OC(=O)O[C@@]21C,2,1,–,> 32,2,1,–,> 256,–,> 256,64,32,1,1,–,32,16,4,4,–
CC[C@H]1OC(=O)[C@H](C)[C@@H](OC(=O)CCN2CCN(c3cc4c(cc3F)c(=O)c(C(=O)O)cn4C3CC3)CC2)[C@H](C)[C@@H](O[C@@H]2O[C@H](C)C[C@H](N(C)C)[C@H]2O)[C@](C)(OC)C[C@@H](C)/C(=N\OCC#Cc2cncc(C(N)=O)c2)[C@H](C)[C@H]2OC(=O)O[C@@]21C,2,1,> 32,4,2,2,–,> 256,> 64,8,1,0.5,8,8,>8,1,0.5,0.5,0.25,>8
CC[C@H]1OC(=O)[C@H](C)[C@@H](OC(=O)CCN2CCN(c3cc4c(cc3F)c(=O)c(C(=O)O)cn4C3CC3)CC2)[C@H](C)[C@@H](O[C@@H]2O[C@H](C)C[C@H](N(C)C)[C@H]2O)[C@](C)(OC)C[C@@H](C)/C(=N\OC)[C@H](C)[C@H]2OC(=O)O[C@@]21C,8,2,–,> 32,4,1,> 256,256,> 256,64,8,1,2,1,–,2,0.5,0.25,0.25,>4
CC[C@H]1OC(=O)[C@H](C)[C@@H](OC(=O)NCCCc2ccc3c(c2)c(=O)c(C(=O)O)cn3C2CC2)[C@H](C)[C@@H](O[C@@H]2O[C@H](C)C[C@H](N(C)C)[C@H]2O)[C@](C)(OC)C[C@@H](C)/C(=N\OC)[C@H](C)[C@H]2OC(=O)O[C@@]21C,2,1,–,> 32,4,2,–,–,–,–,–,–,–,–,–,–,–,–,–,>8
CC[C@H]1OC(=O)[C@H](C)[C@@H](OC(=O)CCNCCNc2cc3c(=O)c(C(=O)O)cn(C4CC4)c3cc2Cl)[C@H](C)[C@@H](O[C@@H]2O[C@H](C)C[C@H](N(C)C)[C@H]2O)[C@](C)(OC)C[C@@H](C)/C(=N\OC)[C@H](C)[C@H]2OC(=O)O[C@@]21C,2,1,–,> 32,1,2,–,> 256,–,–,–,–,–,–,–,–,–,–,–,–
CC[C@H]1OC(=O)[C@H](C)[C@@H](O[C@H]2C[C@@](C)(OC)[C@@H](O)[C@H](C)O2)[C@H](C)[C@@H](O[C@@H]2O[C@H](C)C[C@H](N(C)C)[C@H]2O)[C@](C)(OC)C[C@@H](C)C(=O)[C@H](C)[C@@H](O)[C@]1(C)O [CLARITHROMYCIN],>8,2,–,> 32,8,4,–,> 256,–,–,> 64,8,–,–,–,32,–,0.25,0.062,>8
CC[C@H]1OC(=O)[C@H](C)C(=O)[C@H](C)[C@@H](O[C@@H]2O[C@H](C)C[C@H](N(C)C)[C@H]2O)[C@](C)(OC)C[C@@H](C)C(=O)[C@H](C)[C@H]2N(CCCCn3cnc(-c4cccnc4)c3)C(=O)O[C@]12C [TELITHROMYCIN],4,–,1,0.125,8,4,–,> 256,1,–,0.125,0.031,–,–,8,4,0.5,0.125,0.031,4
C#CCO/N=C1\[C@H](C)C[C@@](C)(OC)[C@H](O[C@@H]2O[C@H](C)C[C@H](N(C)C)[C@H]2O)[C@@H](C)[C@H](OC(=O)CCN2CCN(c3cc4c(cc3F)c(=O)c(C(=O)O)cn4C3CC3)CC2)[C@@H](C)C(=O)O[C@H](CC)[C@@]2(C)OC(=O)O[C@@H]2[C@H]1C,2,1,> 32,32,2,1,> 256,256,> 256,64,8,4,1,1,–,2,1,0.5,0.5,>4
CC[C@H]1OC(=O)[C@H](C)[C@@H](OC(=O)CCN2CCN(c3cc4c(cc3F)c(=O)c(C(N)=O)cn4C3CC3)CC2)[C@H](C)[C@@H](O[C@@H]2O[C@H](C)C[C@H](N(C)C)[C@H]2O)[C@](C)(OC)C[C@@H](C)/C(=N\OCC#Cc2cncc(C(=O)NC)c2)[C@H](C)[C@H]2OC(=O)O[C@@]21C,>8,–,> 256,256,4,4,> 256,> 256,> 256,256,> 256,32,> 256,> 256,–,4,1,1,0.25,–
CC[C@H]1OC(=O)[C@H](C)[C@@H](OC(=O)CCNCCCCCCCCNc2cc3c(=O)c(C(=O)O)cn(C4CC4)c3cc2Cl)[C@H](C)[C@@H](O[C@@H]2O[C@H](C)C[C@H](N(C)C)[C@H]2O)[C@](C)(OC)C[C@@H](C)/C(=N\OC)[C@H](C)[C@H]2OC(=O)O[C@@]21C,>8,–,–,> 32,1,1,> 256,128,> 256,128,> 32,4,–,> 256,–,16,16,2,2,–
